Where a name gives a salt, the structure may show the parent alone.
System: aggregation of platelets
Assay: not given
Details: rat, abdominal aorta; cited from earlier work

Molecule	prevention of aggregation of platelets in an extra corporeal loop
O=C1C(CC[S+]([O-])c2ccccc2)C(=O)N(c2ccccc2)N1c1ccccc1 (centres unmarked) [sulphinpyrazone]	prevent the aggregation of platelets

System: human blood platelet aggregation
Assay: not given
Details: human blood platelets; cited from earlier work

Molecule	inhibitory activity in vitro against a variety of aggregating agents
O=C1C(CC[S+]([O-])c2ccccc2)C(=O)N(c2ccccc2)N1c1ccccc1 (centres unmarked) [sulphinpyrazone]	show inhibitory activity in vitro
CC(=O)Oc1ccccc1C(=O)O [aspirin]	show inhibitory activity in vitro

Target: T1, prostacyclin synthetase (Sus scrofa, UniProt A0A5G2QT35)
T1 construct: Pig aorta microsomes; from tissue; host or cells: pig aorta (microsomes)
T1 sequence (A0A5G2QT35 1-497): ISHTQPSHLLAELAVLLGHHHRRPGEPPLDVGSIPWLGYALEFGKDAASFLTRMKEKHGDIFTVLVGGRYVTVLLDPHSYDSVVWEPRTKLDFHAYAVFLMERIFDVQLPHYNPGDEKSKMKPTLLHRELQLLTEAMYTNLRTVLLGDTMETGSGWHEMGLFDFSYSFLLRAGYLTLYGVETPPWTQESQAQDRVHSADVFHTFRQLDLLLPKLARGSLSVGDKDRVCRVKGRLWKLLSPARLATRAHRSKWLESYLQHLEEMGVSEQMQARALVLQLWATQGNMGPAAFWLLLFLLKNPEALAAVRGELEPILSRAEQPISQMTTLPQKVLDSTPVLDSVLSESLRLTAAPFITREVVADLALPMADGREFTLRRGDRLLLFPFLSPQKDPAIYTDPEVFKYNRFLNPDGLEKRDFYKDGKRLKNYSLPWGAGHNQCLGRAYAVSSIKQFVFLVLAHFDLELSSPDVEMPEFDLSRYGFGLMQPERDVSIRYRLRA
Assay: not given
Details: pre-incubation of the enzyme; cited from earlier work

Molecule	prevention of the decrease in PGH2-induced tension (selective PGI2 synthetase inhibitor)
15-hydroxy-arachidonic acid	prevented completely

System: cyclo-oxygenase enzyme
Assay: not given
Details: cited from earlier work

Molecule	effect on prostacyclin and thromboxane A2 levels	inhibition of the cyclo-oxygenase enzyme
CC(=O)Oc1ccccc1C(=O)O [aspirin]	reduce both the prostacyclin and thromboxane A2 levels	inhibit the cyclo-oxygenase enzyme

Target: T1, prostacyclin synthetase
Assay: Prostacyclin (PGI2) synthetase inhibition, pig aorta microsomes, rabbit aorta bioassay
Assay type: biochemical
Details: test compound pre-incubated with enzyme for 5 minutes, read-out: Molar concentration causing 50% inhibition of prostacyclin synthetase
Procedure: The effect of the compounds of the formula (I) on the thromboxane synthetase enzyme, and the prostacyclin synthetase and cyclooxygenase enzymes has been measured by the following in vitro enzyme assays:
2. Prostacyclin (PGI2) Synthetase
Pig aorta microsomes (Nature, 1976, 263, 663) are incubated (30 sec.: 22° C.) with PGH2 produced as in 1) and aliquots bio-assayed as in 1. […] The test compound is then pre-incubated with the enzyme for 5 minutes, and its ability to prevent the decrease in tension is measured.
The results of these tests are shown in the following Table, which gives the molar concentration of each compound which caused a 50% change in the effect of the relevant enzyme on isometric tension, i.e. caused a 50% inhibition of the action of that enzyme.

IC50	Molecule
40000 nM	O=C(NCCCn1cc(Cn2ccnc2)c2ccccc21)Nc1ccccc1 [Example 47, N-Phenyl-N'-[3-[3-(imidazol-1-ylmethyl)indol-1-yl]propyl]urea]
> 100000 nM	CCOC(=O)Cn1cc(Cn2ccnc2)c2ccccc21 [Example 10, 1-Ethoxycarbonylmethyl-3-(1-imidazolylmethyl)indole]
24000 nM	N#CCCn1cc(Cn2ccnc2)c2ccccc21 [Example 1, 1-(2-Cyanoethyl)-3-(1-imidazolylmethyl)indole fumarate]
> 100000 nM	O=C(O)CCn1cc(Cn2ccnc2)c2cc(Br)ccc21 [Example 20, 5-bromo-1-(2-carboxyethyl)-3-(1-imidazolylmethyl)indole]
> 100000 nM	O=C(O)c1cccc(Cn2cc(Cn3ccnc3)c3ccccc32)c1 [Example 25, 1-(3-Carboxybenzyl)-3-(1-imidazolylmethyl)indole]
2200 nM	N#Cc1ccc(Cn2cc(Cn3ccnc3)c3ccccc32)cc1 [Example 4, 1-(4-Cyanobenzyl)-3-(1-imidazolylmethyl)indole]
40000 nM	O=C(O)CCn1c(C2CC2)c(Cn2ccnc2)c2ccccc21 [Example 14, 1-carboxyethyl-2-cyclopropyl-3-(1-imidazolylmethyl)indole]
> 100000 nM	O=C(O)c1ccc(Cn2cc(Cn3ccnc3)c3ccccc32)cc1 [Example 24, 1-(4-Carboxybenzyl)-3-(1-imidazolylmethyl)indole]
> 100000 nM	CCOC(=O)c1ccc(Cn2cc(Cn3ccnc3)c3ccccc32)cc1 [Example 7, 1-(4-Ethoxycarbonylbenzyl)-3-(1-imidazolylmethyl)indole hemi-fumarate]
70000 nM	CC(C)c1c(Cn2ccnc2)c2ccccc2n1CCC(N)=O [Example 28, 1-(2-Carbamoylethyl)-2-isopropyl-3-(1-imidazolylmethyl)indole]
100000 nM	CC(C)c1c(Cn2ccnc2)c2ccccc2n1CCC(=O)O [Example 13]
100000 nM	O=S(=O)(NCCCn1cc(Cn2ccnc2)c2ccccc21)c1ccccc1 [Example 48, 1-(3-Benzenesulphonylaminopropyl)-3-(1-imidazolylmethyl)indole]
> 100000 nM	O=C(O)Cn1cc(Cn2ccnc2)c2ccccc21 [Example 23, 1-Carboxymethyl-3-(1-imidazolylmethyl)indole]
100000 nM	NC(=O)Cn1cc(Cn2ccnc2)c2ccccc21 [Example 27, 1-Carbamoylmethyl-3-(1-imidazolylmethyl)indole]
45000 nM	c1ccc2c(c1)c(Cn1ccnc1)cn2CCc1nnn[nH]1 [Example 42, 1-[2-(5-Tetrazolyl)ethyl]-3-(1-imidazolylmethyl)indole]
> 100000 nM	O=C(O)CCn1cc(Cn2ccnc2)c2ccccc21 [Example 11, 1-(2-Carboxyethyl)-3-(1-imidazolylmethyl)indole fumarate monohydrate]

System: not given
Assay: not given
Details: rabbit; intravenous arachidonic acid; cited from earlier work

Molecule	protection from the lethal effect of arachidonic acid injection
O=C1C(CC[S+]([O-])c2ccccc2)C(=O)N(c2ccccc2)N1c1ccccc1 (centres unmarked) [sulphinpyrazone]	protect the rabbit from the lethal effect of the injection
CC(=O)Oc1ccccc1C(=O)O [aspirin]	protect the rabbit from the lethal effect of the injection

Target: T2, thromboxane synthetase (Homo sapiens, UniProt P24557)
T2 construct: human platelet microsomes; from tissue; host or cells: human blood platelets (microsomes, indomethacin pre-treated)
T2 sequence (P24557 1-533): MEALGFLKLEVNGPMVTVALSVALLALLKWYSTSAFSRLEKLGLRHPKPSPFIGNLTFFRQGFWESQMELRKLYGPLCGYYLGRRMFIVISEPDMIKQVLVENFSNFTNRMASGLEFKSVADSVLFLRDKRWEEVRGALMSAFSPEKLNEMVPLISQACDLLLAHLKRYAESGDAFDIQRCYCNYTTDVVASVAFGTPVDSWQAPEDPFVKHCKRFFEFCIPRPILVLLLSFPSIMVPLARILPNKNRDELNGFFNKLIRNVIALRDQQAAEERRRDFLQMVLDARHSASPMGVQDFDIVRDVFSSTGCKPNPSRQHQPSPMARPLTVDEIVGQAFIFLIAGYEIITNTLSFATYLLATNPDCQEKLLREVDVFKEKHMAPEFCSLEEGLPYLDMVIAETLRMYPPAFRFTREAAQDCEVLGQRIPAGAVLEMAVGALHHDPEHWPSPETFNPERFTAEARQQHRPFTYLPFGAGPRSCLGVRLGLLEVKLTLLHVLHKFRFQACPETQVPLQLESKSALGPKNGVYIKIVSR
Assay: Thromboxane A2 (TxA2) synthetase inhibition, human platelet microsomes, rabbit aorta bioassay
Assay type: biochemical
Details: test compound pre-incubated with enzyme for 5 minutes, read-out: Molar concentration causing 50% inhibition of thromboxane synthetase
Procedure: 3. Thromboxane A2 (TxA2) Synthetase
Indomethacin pre-treated human platelet microsomes (Science, 1976, 193, 163) are incubated (2 min.: 0° C.) with PGH2 (produced as in 1) and aliquots of the reaction mixture superfused over two rabbit aorta spirals which are separated by a delay coil (2 min.). The latter is required to allow the selective decay of the more unstable thromboxane A2 (Proc. Nat. Acad. Sci., 1975, 72, 2994) thereby enabling the separate measurement of increased isometric tension due to the TxA2 formed and the PGH2 remaining. The test compound is pre-incubated with enzyme for 5 minutes, and its ability to inhibit the thromboxane synthetase enzyme is measured as its reduction of the TxA2 component of the isometric tension.

IC50	Molecule
5.5 nM	O=C(NCCCn1cc(Cn2ccnc2)c2ccccc21)Nc1ccccc1 [Example 47, N-Phenyl-N'-[3-[3-(imidazol-1-ylmethyl)indol-1-yl]propyl]urea]
12 nM	CCOC(=O)Cn1cc(Cn2ccnc2)c2ccccc21 [Example 10, 1-Ethoxycarbonylmethyl-3-(1-imidazolylmethyl)indole]
130 nM	NC(=O)c1ccc(Cn2cc(Cn3ccnc3)c3ccccc32)cc1 [Example 38, 1-(4-Carbamoylbenzyl)-3-(1-imidazolylmethyl)indole]
18 nM	N#CCCn1cc(Cn2ccnc2)c2ccccc21 [Example 1, 1-(2-Cyanoethyl)-3-(1-imidazolylmethyl)indole fumarate]
2.4 nM	O=C(O)c1cccc(Cn2cc(Cn3ccnc3)c3ccccc32)c1 [Example 25, 1-(3-Carboxybenzyl)-3-(1-imidazolylmethyl)indole]
4.8 nM	N#Cc1ccc(Cn2cc(Cn3ccnc3)c3ccccc32)cc1 [Example 4, 1-(4-Cyanobenzyl)-3-(1-imidazolylmethyl)indole]
0.037 nM	O=C(O)CCn1c(C2CC2)c(Cn2ccnc2)c2ccccc21 [Example 14, 1-carboxyethyl-2-cyclopropyl-3-(1-imidazolylmethyl)indole]
0.16 nM	O=C(O)c1ccc(Cn2cc(Cn3ccnc3)c3ccccc32)cc1 [Example 24, 1-(4-Carboxybenzyl)-3-(1-imidazolylmethyl)indole]
0.16 nM	CCOC(=O)c1ccc(Cn2cc(Cn3ccnc3)c3ccccc32)cc1 [Example 7, 1-(4-Ethoxycarbonylbenzyl)-3-(1-imidazolylmethyl)indole hemi-fumarate]
6 nM	CC(C)c1c(Cn2ccnc2)c2ccccc2n1CCC(N)=O [Example 28, 1-(2-Carbamoylethyl)-2-isopropyl-3-(1-imidazolylmethyl)indole]
2 nM	CC(C)c1c(Cn2ccnc2)c2ccccc2n1CCC(=O)O [Example 13]
2.1 nM	CNC(=O)NCCCn1cc(Cn2ccnc2)c2ccccc21 [Example 46, N-Methyl-N'-[3-[3-(imidazol-1-ylmethyl)indol-1-yl]propyl]urea]
1 nM	O=S(=O)(NCCCn1cc(Cn2ccnc2)c2ccccc21)c1ccccc1 [Example 48, 1-(3-Benzenesulphonylaminopropyl)-3-(1-imidazolylmethyl)indole]
0.8 nM	O=C(O)Cn1cc(Cn2ccnc2)c2ccccc21 [Example 23, 1-Carboxymethyl-3-(1-imidazolylmethyl)indole]
140 nM	NC(=O)Cn1cc(Cn2ccnc2)c2ccccc21 [Example 27, 1-Carbamoylmethyl-3-(1-imidazolylmethyl)indole]
0.034 nM	c1ccc2c(c1)c(Cn1ccnc1)cn2CCc1nnn[nH]1 [Example 42, 1-[2-(5-Tetrazolyl)ethyl]-3-(1-imidazolylmethyl)indole]
0.04 nM	O=C(O)CCn1cc(Cn2ccnc2)c2ccccc21 [Example 11, 1-(2-Carboxyethyl)-3-(1-imidazolylmethyl)indole fumarate monohydrate]

— patent US4273782A, “Inhibition of thromboxane synthetase by 3-(1-Imidazolylalkyl) indoles” (Pfizer Inc., priority 1979, dated 1981)
